pEC50, pIC50: −log10 of the molar value.
Tests used:
[1] = molecular target: T1, Beta-3 adrenergic receptor (Homo sapiens, UniProt P13945); assay: (§1) concentration-response expressed as a percent of the maximal response to R-(-) isoproterenol (ISO).Emax is the fitted maximal value of the concentration; format: functional
Target sequence in this assay (P13945 whole entry, looked up): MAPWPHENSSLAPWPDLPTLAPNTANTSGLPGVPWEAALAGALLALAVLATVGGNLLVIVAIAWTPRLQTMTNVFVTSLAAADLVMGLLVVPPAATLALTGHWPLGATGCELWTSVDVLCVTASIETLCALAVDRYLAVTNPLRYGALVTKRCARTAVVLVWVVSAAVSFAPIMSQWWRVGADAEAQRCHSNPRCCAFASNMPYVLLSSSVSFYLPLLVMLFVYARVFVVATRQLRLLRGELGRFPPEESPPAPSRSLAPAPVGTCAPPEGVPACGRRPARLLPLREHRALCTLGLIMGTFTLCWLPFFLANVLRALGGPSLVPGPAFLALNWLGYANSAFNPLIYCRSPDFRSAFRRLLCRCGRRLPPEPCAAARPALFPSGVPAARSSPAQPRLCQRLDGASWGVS

[2] = molecular target: T2, Beta-2 adrenergic receptor (Homo sapiens, UniProt P07550); assay: as §1; format: functional
Target sequence in this assay (P07550 whole entry, looked up): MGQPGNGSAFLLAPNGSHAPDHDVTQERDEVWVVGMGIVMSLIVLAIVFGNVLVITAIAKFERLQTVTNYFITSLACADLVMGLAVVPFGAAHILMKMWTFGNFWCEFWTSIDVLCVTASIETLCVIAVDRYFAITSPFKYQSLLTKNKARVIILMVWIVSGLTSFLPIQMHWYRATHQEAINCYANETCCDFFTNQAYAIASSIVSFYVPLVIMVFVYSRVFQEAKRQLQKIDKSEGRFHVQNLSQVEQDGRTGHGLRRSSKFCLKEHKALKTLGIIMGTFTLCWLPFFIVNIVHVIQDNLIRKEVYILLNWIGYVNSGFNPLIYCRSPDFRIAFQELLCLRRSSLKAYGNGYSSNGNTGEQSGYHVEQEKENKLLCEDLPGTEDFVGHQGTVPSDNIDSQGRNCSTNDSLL

[3] = molecular target: T3, Beta-1 adrenergic receptor (Homo sapiens, UniProt P08588); assay: as §1; format: functional
Target sequence in this assay (P08588 whole entry, looked up): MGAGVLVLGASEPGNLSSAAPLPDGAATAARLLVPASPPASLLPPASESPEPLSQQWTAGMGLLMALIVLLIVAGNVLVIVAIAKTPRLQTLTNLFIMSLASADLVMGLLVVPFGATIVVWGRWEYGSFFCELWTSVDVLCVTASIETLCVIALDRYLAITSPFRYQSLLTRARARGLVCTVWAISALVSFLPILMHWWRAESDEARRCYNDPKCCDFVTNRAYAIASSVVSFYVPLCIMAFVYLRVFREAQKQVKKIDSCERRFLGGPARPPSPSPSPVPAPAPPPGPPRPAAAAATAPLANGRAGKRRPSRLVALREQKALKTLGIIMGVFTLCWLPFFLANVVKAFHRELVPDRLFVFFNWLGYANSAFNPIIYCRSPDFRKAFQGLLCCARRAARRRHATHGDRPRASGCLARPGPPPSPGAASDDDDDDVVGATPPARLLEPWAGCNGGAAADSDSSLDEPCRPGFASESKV

[4] = molecular target: T2, Beta-2 adrenergic receptor; assay: Receptor binding assay(Beta-2 adrenergic receptor) carried out with membranes prepared from human recombinant Sf9 cells expressing the cloned human receptor in the presence of [125I]iodocyanopindolol; format: cell membranes
Target sequence in this assay (P07550 whole entry): as the sequence (P07550 whole entry, looked up) above

[5] = Area under curve (AUC) value in dogs after an intravenous dose of 0.2 mg/Kg in 0.025 M aqueous methanesulfonic acid solution with 5% mannitol at a concentration of 0.2; format: ADME, organism-based, Canis lupus familiaris; settings: dog, in vivo
[6] = molecular target: T1, Beta-3 adrenergic receptor
Target sequence in this assay (P13945 whole entry): as the sequence (P13945 whole entry, looked up) above

[7] = test system: Canis familiaris; assay: Plasma clearance in dogs after an intravenous dose of 0.2 mg/Kg; format: ADME, organism-based, Canis lupus familiaris; settings: dog, in vivo
[8] = Volume distribution in dogs after an intravenous dose of 0.2 mg/Kg; format: ADME, organism-based; settings: dog, in vivo
[9] = Selectivity ratio (Beta-2EC50/ Beta-3EC50); format: functional
[10] = Selectivity ratio (Beta-1EC50/ Beta-3EC50); format: functional
[11] = Half life (t1/2) value in dogs after an intravenous dose of 0.2 mg/Kg; format: ADME, organism-based, Canis lupus familiaris; settings: dog, in vivo
[12] = molecular target: T3, Beta-1 adrenergic receptor; assay: Ability to cause cAMP accumulation in CHO cells expressing human beta-1 AR expressed as the negative logarithm of the molar drug concentration; format: functional, cell-based
Target sequence in this assay (P08588 whole entry): as the sequence (P08588 whole entry, looked up) above

[13] = molecular target: T2, Beta-2 adrenergic receptor; assay: Ability to cause cAMP accumulation in CHO cells expressing human beta-2 AR expressed as the negative logarithm of the molar drug concentration; format: functional, cell-based
Target sequence in this assay (P07550 whole entry): as the sequence (P07550 whole entry, looked up) above

[14] = plasma concentration at the 2.5 hour time; format: ADME; settings: read-out: C
[15] = molecular target: T3, Beta-1 adrenergic receptor; assay: Receptor binding assay(Beta-1 adrenergic receptor) carried out with membranes prepared from human recombinant Sf9 cells expressing the cloned human receptor in the presence of [125I]iodocyanopindolol; format: cell membranes
Target sequence in this assay (P08588 whole entry): as the sequence (P08588 whole entry, looked up) above

[16] = Area under curve (AUC) value in dogs after an intravenous dose of 0.2 mg/Kg in 0.025 M aqueous methanesulfonic acid solution with 5% mannitol; format: ADME; settings: dog, in vivo
[17] = molecular target: T1, Beta-3 adrenergic receptor; assay: Ability to cause cAMP accumulation in CHO cells expressing human beta-3 AR expressed as the negative logarithm of the molar drug concentration; format: functional, cell-based
Target sequence in this assay (P13945 whole entry): as the sequence (P13945 whole entry, looked up) above

[18] = molecular target: T3, Beta-1 adrenergic receptor; assay: Concentration that causes 50% inhibition of human beta 1 adrenergic receptor (AR), expressed in CHO cells.; format: functional, cell-based
Target sequence in this assay (P08588 whole entry): as the sequence (P08588 whole entry, looked up) above

[19] = molecular target: T2, Beta-2 adrenergic receptor; assay: Concentration that causes 50% inhibition of human beta 2 adrenergic receptor (AR), expressed in CHO cells.; format: functional, cell-based
Target sequence in this assay (P07550 whole entry): as the sequence (P07550 whole entry, looked up) above

[20] = plasma concentration at the 2.5 hour time; significant; format: ADME
[21] = molecular target: T1, Beta-3 adrenergic receptor; assay: Activity against human beta 3 adrenergic receptor (AR), expressed in CHO cells.; format: functional, cell-based
Target sequence in this assay (P13945 whole entry): as the sequence (P13945 whole entry, looked up) above

[22] = molecular target: T1, Beta-3 adrenergic receptor; assay: (§2) concentration-response expressed as a percent of the maximal response to R-(-) isoproterenol (ISO); format: functional
Target sequence in this assay (P13945 whole entry, looked up): as above

[23] = molecular target: T3, Beta-1 adrenergic receptor; assay: as §2; format: functional
Target sequence in this assay (P08588 whole entry, looked up): as the sequence (P08588 whole entry, looked up) above

[24] = molecular target: T2, Beta-2 adrenergic receptor; assay: Activity against human beta 2 adrenergic receptor (AR), expressed in CHO cells; format: functional, cell-based
Target sequence in this assay (P07550 whole entry): as the sequence (P07550 whole entry, looked up) above

[25] = molecular target: T2, Beta-2 adrenergic receptor; assay: concentration-response expressed as a percent of the maximal response to R-(-) isoprenaline (ISO); format: functional
Target sequence in this assay (P07550 whole entry, looked up): as above

[26] = molecular target: T2, Beta-2 adrenergic receptor; assay: concentration-response expressed as a percent of the maximal response to R-(-) isoprenaline (ISO).Emax is the fitted maximal value of the concentration; format: functional
Target sequence in this assay (P07550 whole entry, looked up): as above

Emax [1]	Emax [2]	Emax [3]	pEC50 [6]	pEC50 [12]	pEC50 [13]	SMILES	Ratio [9]	Ratio [10]	also measured
98%	34%	23%	8.90	6.20	7.10	Cc1ccc(S(=O)(=O)NC(=O)Cc2ccc(NC[C@@H](C)NC[C@H](O)c3cccc(Cl)c3)cc2)cc1	63	501	pIC50 [4]: 5.30; AUC [5]: 715 ng·h/mL; Clp [7]: 4.7 mL/min/kg; Vd [8]: 0.2 L/kg; half-life [11]: 1 h; concentration at 2.5 h [14]: 42.1 ng/mL; pIC50 [15]: 5.70
110%	59%	22%	9.10	6.10	7.50	C[C@H](CNc1ccc(CC(=O)NS(=O)(=O)c2ccccc2)cc1)NC[C@H](O)c1cccc(Cl)c1	40	1000	–
100%	52%	27%	–	–	–	C[C@H](CNc1ccc(CCS(=O)(=O)NC(=O)c2ccccc2)cc1)NC[C@H](O)c1cccc(Cl)c1	32	79	AUC [16]: 383 ng·h/mL; Clp [7]: 8.7 mL/min/kg; pEC50 [17]: 8.00; Vd [8]: 0.478 L/kg; half-life [11]: 1.2 h; pEC50 [18]: 6.10; pEC50 [19]: 6.50
105%	23%	15%	–	–	–	C[C@H](CNc1cccc(CNC(=O)NS(=O)(=O)c2ccccc2)c1)NC[C@H](O)c1cccc(Cl)c1	16	25	pEC50 [17]: 7.80; half-life [11]: < 1 h; pEC50 [18]: 6.40; pEC50 [19]: 6.60
105%	100%	27%	7.70	8.30	8.00	C[C@H](CNc1ccccc1)NC[C@H](O)c1cccc(Cl)c1	0.5	0.3	–
–	–	–	–	–	–	C[C@H](CNc1cccc(CCS(=O)(=O)NS(=O)(=O)c2ccccc2)c1)NC[C@H](O)c1cccc(Cl)c1	630	> 500	C [20]: Not Active; pEC50 [21]: 8.80; Emax [22]: 113%; Emax [23]: 21%; pEC50 [24]: 6.00; half-life [11]: < 1 h; Emax [25]: 31%
96%	78%	30%	8.30	7.00	7.70	C[C@H](CNc1ccc(CC(=O)NS(C)(=O)=O)cc1)NC[C@H](O)c1cccc(Cl)c1	4	20	–
104%	22%	10%	7.60	6.60	6.40	C[C@H](CNc1ccc(CCC(=O)O)cc1)NC[C@H](O)c1cccc(Cl)c1	16	10	–
126%	40%	12%	–	7.60	9.00	Cc1ccc(CNC(=O)Cc2ccc(NC[C@@H](C)NC[C@H](O)c3cccc(Cl)c3)cc2)cc1	0.02	0.4	pEC50 [17]: 7.20
101%	31%	14%	8.90	8.50	8.10	C[C@H](CNc1ccc(CC(=O)Nc2nccs2)cc1)NC[C@H](O)c1cccc(Cl)c1	6.3	2.5	–
123%	75%	15%	7.90	8.10	8.50	CC(=O)NCc1ccc(NC[C@@H](C)NC[C@H](O)c2cccc(Cl)c2)cc1	0.3	0.6	–
102%	66%	11%	7.70	8.30	8.30	C[C@H](CNc1ccc(CNS(C)(=O)=O)cc1)NC[C@H](O)c1cccc(Cl)c1	0.4	0.4	–
98%	16%	8%	8.20	–	–	Cc1ccc(S(=O)(=O)NC(=O)Cc2cccc(NC[C@@H](C)NC[C@H](O)c3cccc(Cl)c3)c2)cc1	> 158	> 794	AUC [16]: 279 ng·h/mL; pIC50 [4]: 4.80; Clp [7]: 11.9 mL/min/kg; Vd [8]: 0.409 L/kg; half-life [11]: 1.7 h; pEC50 [18]: < 5.30; concentration at 2.5 h [14]: 10.3 ng/mL; pEC50 [19]: < 6.00; pIC50 [15]: 5.30
98%	28%	22%	–	7.70	8.00	Cc1ccc(S(=O)(=O)NCCc2ccc(NC[C@@H](C)NC[C@H](O)c3cccc(Cl)c3)cc2)cc1	0.5	1	pEC50 [17]: 7.70
–	–	–	7.80	7.10	7.30	C[C@H](CNc1ccc(CC(=O)O)cc1)NC[C@H](O)c1cccc(Cl)c1	3.1	5	pIC50 [4]: 6.10; Emax [26]: 90%; pIC50 [15]: 6.00
117%	–	6%	6.50	< 5.00	7.30	C[C@H](CNc1cccc(CC(=O)O)c1)NC[C@H](O)c1cccc(Cl)c1	0.2	–	Emax [26]: 80%
79%	70%	17%	6.10	6.20	5.50	C[C@H](CNc1ccc(C(=O)O)cc1)NC[C@H](O)c1cccc(Cl)c1	4	0.8	–

SMILES	Emax [1]	Emax [2]	Emax [3]	pEC50 [6]	pEC50 [12]	pEC50 [13]	Ratio [9]	Ratio [10]	also measured
C[C@H](Cc1ccc(OCC(=O)O)cc1)NC[C@H](O)c1cccc(Cl)c1	–	–	28%	–	–	–	–	–	Emax [26]: 80%

— ChEMBL document CHEMBL1135599, “Synthesis and evaluation of potent and selective beta(3) adrenergic receptor agonists containing acylsulfonamide, sulfonylsulfonamide, and sulfonylurea carboxylic acid isosteres” (J Med Chem, 2002)
